Assay results: US11413255B2, “Multifunctional cytoprotectant for treatment of pathogenic processes mediated by oxidative stress and toxic electrophiles” (Montefiore Medical Center, priority 2015, dated 2022)
“Also recorded” adds a separate entry of the source. Where two headings read alike, the source gives them in different places.

Experiments:
[1] = In chemico prevention of thiol (GSH) depletion by NAPQI; format: biochemical; conditions: FIG. 2A
[2] = In chemico prevention of thiol (GSH) depletion by acrolein; format: biochemical; conditions: FIG. 2B
[3] = system: APAP-exposed isolated mouse liver cells (hepatocytes); experiment: Viability of APAP-exposed isolated mouse hepatocytes, graded protectant concentrations; format: cell-based; conditions: read-out: EC50 (cytoprotection)
[4] = system: isolated hepatocytes exposed to graded APAP; experiment: Isolated hepatocytes, fixed protectant and graded APAP concentrations; format: cell-based, mouse
Text: FIG. 8A-8B. […] Data are expressed as mean percent of control±SEM and *indicates p<0.05.

[5] = system: APAP-exposed hepatocytes; experiment: Hepatocyte rescue: protectant added 2 hrs after APAP; format: cell-based, mouse
[6] = system: APAP-intoxicated mice; conditions: for hepatoprotection in APAP-intoxicated mice, i. p. administration: i. p. 20 mins prior to APAP, THA 0.20-0.80, PG 0.40-2.40, 4-NAHA 0.04-0.08 mmol/kg; for hepatoprotection in APAP-intoxicated mice, oral administration: THA and PG 0.80-2.40, 4-NAHA 0.04-0.12, NAC 1.60-2.40 mmol/kg
Text: Survival curves, THA and PG i. p. administration.
Survival curves, THA and PG oral administration.
Survival curves, 4-NAHA i. p. and oral administration.

[7] = system: mice
[8] = system: carbon tetrachloride-induced hepatotoxicity in mice; conditions: 0.032 mmol/kg p. o.; carbon tetrachloride 0.5 ml/kg i. p.; cited from earlier work
[9] = physchem
[10] = system: mice; conditions: cited from earlier work
[11] = pKa and % anion at physiological pH; conditions: for % in the carbanion / ionized nucleophilic state: physiological / cellular pH
[12] = system: raloxifene-exposed hepatocytes; experiment: Raloxifene-induced hepatocyte toxicity; conditions: for protection against raloxifene: at 150 μM
[13] = Computational data on THA analogues: pKa and % anion; format: physicochemical
Text: Computational Data on THA Analogues:

[14] = system: raloxifene-exposed hepatocytes
[15] = system: cell culture models of oxidative stress and electrophile (acrolein) toxicity; conditions: cited from earlier work
[16] = 0.25 mM protectant, APAP 0.25-5.0 mM×4 hrs
[17] = 0.25 mM protectant, highest APAP concentration 5.0 mM
[18] = 1.0 mM protectant, APAP 0.25-5.0 mM×4 hrs
[19] = 0.25 mM protectant, APAP 1.0 mM

Row | SMILES | EC50 ([3]; Mus musculus, Hepatocyte, 4 h) [µM] | cytoprotection (viability) [4, 16] | toxicity measures (ALT appearance, mitochondrial membrane potential) ([4]; 1.0 mM protectant) | cytoprotection (viability) [4, 18] | effect on viability, protectant added 2 hrs post-APAP [5, 19] | effect on viability, protectant added 2 hrs post-APAP ([5]; 1.0 mM protectant) | hepatoprotection in APAP-intoxicated mice, oral administration [6] | % Anion (pH 7.4) [11] [%] | protection against raloxifene [12] | further results
1 | CC(=O)c1c(O)cc(O)cc1O [THA, 2′,4′,6′-trihydroxyacetophenone] | ~90 | fully protective up to the 1.0 mM APAP concentration | normal | full hepatocyte protection irrespective of APAP concentration | partial recovery of viability | complete restoration of viability | dose-dependent hepatoprotection; also recorded: dose-dependent protection | 33.0 | fully protective | prevention of NAPQI-induced thiol (GSH) depletion [1]: better thiol protection than PG; also recorded: better protection against NAPQI-induced GSH loss; prevention of acrolein-induced thiol (GSH) depletion [2]: better thiol protection than PG; cytoprotection (viability) [4, 17]: preserved cell viability; hepatoprotection in APAP-intoxicated mice, i. p. administration [6]: dose-dependent (0.20-0.80 mmol/kg) hepatoprotection; lethality associated with the i. p. doses ([7]; i. p. doses of FIG. 3): No lethality; prevention of carbon tetrachloride-induced hepatotoxicity [8]: completely prevent; pKa [9]: 7.75; oral LD50 mice [10]: 3.20 gm/kg; pKa [11]: 7.7; % in the carbanion / ionized nucleophilic state [11]: approximately 33%; relative ability to prevent raloxifene-induced hepatocyte toxicity ([12]; FIG. 10 legend): superior protection
2 | O=C(CCc1ccc(O)cc1)c1c(O)cc(O)cc1O [drawing 21] |  |  |  |  |  |  |  |  |  | % Anion (pH = 7.4) [13]: 56%
3 | Oc1cc(O)cc(O)c1 [PG, 1,3,5-trihydroxybenzene] | ~90 | fully protective up to the 1.0 mM APAP concentration |  | full hepatocyte protection irrespective of APAP concentration | arrested the progression of APAP-induced toxicity | complete restoration of viability |  | 7.40 |  | cytoprotection (viability) [4, 17]: only partial cytoprotection; pKa [9]: 8.45; % in the carbanion / ionized nucleophilic state [11]: 7%
4 | CC(=O)C1CCCC1=O (stereo not drawn) [2-ACP, 2-acetylcyclopentanone] | ~1000 | neither 2-ACP nor NAC provided cytoprotection beyond the lowest APAP concentration | return toward normalization of the toxicity indices | partial cytoprotection | ineffective | truncated the rapid decline in viability |  | 28.0 | partial protection | prevention of acrolein-induced thiol (GSH) depletion [2]: better GSH protection from acrolein than THA or PG; effect on viability, protectant added 2 hrs post-APAP ([5]; 5 mM protectant, APAP 1.0 mM): promoted recovery of APAP-exposed hepatocytes
5 | O=C(c1ccc(OCCN2CCCCC2)cc1)c1c(-c2ccc(O)cc2)sc2cc(O)ccc12 [raloxifene, reference compound] |  |  |  |  |  |  |  |  |  | concentration producing hepatocyte toxicity ([12]; raloxifene exposure): 75 µM
6 | CC(=O)c1cc(O)c(C(C)=O)c(O)c1 [4-NAHA, 4-acetyl-2,6-dihydroxy acetophenone] |  |  |  |  |  |  | effective over a broader dose-range |  | fully protective | EC50 ([3]; APAP 1.0 mM, 4 hrs, protectant 0.010-5.0 mM): 6 µM; hepatoprotection ([6]; i. p. 0.04 mmol/kg): ineffective; hepatoprotection ([6]; i. p. 0.08 mmol/kg): significant hepatoprotection; hepatoprotection in APAP-intoxicated mice, i. p. administration [6]: dose-dependent protection; hepatoprotection ([6]; oral 0.04 mmol/kg): ineffective; hepatoprotection ([6]; oral 0.12 mmol/kg, lethality significantly delayed): partially protective; delayed toxicity ([7]; all doses tested, 7 days): did not cause delayed toxicity; acute toxicity ([7]; doses 0.04-0.12 mmol/kg): not acutely toxic; relative ability to prevent raloxifene-induced hepatocyte toxicity [14]: superior protection
7 | CC(=O)N[C@@H](CS)C(=O)O [NAC, N-acetyl cysteine] | ~1000 | neither 2-ACP nor NAC provided cytoprotection beyond the lowest APAP concentration | return toward normalization of the toxicity indices | partial cytoprotection | ineffective | truncated the rapid decline in viability | effective APAP antidote only when administered orally | 0.80 | partial protection | effect on viability, protectant added 2 hrs post-APAP ([5]; 5 mM protectant, APAP 1.0 mM): promoted recovery of APAP-exposed hepatocytes
8 | Oc1cc(O)cc(O)c1 [drawing 24] |  |  |  |  |  |  |  |  |  | % Anion (pH = 7.4) [13]: 07%; pKa ([13]; values without * (not estimates)): 8.5
9 | O=C(CCc1ccc(O)cc1)c1c(O)cc(O)cc1O [Phloretin, phloretin] |  |  |  |  |  |  |  | 55.0 |  | hepatoprotection ([6]; i. p. 0.200 mmol/kg, APAP 500 mg/kg p. o.): marginal hepatoprotection; lethality when administered alone ([7]; 0.40-2.40 mmol/kg, administered alone): associated with lethality; effect of higher concentrations ([15]; above the protective range): cytotoxic; concentrations giving significant cytoprotection ([15]; several cell culture models): 100 to 250 µM
